According to paper PMC4744035, “In Vivo, In Vitro, and In Silico Characterization of Peptoids as Antimicrobial Agents” (PLoS ONE, 2016):
Values after ≈ are worked out from the molar mass of the structure shown. Where two headings read alike, the source gives them in different places. Square brackets hold non-standard residues; d marks the D form. Ends that are not written are not given here. Peptide text beside a SMILES is read from it. Nspe = C[C@H](NCC(=O)O)c1ccccc1; Nphe = O=C(O)CNCc1ccccc1; Nlys = NCCCCNCC(=O)O

What was measured:
[1] = system: erythrocytes; experiment: Hemolytic activity (HD10/HD50); type: cell-based
Text: Table 1 Characteristics of antimicrobial peptoids, screened for activity against B. subtilis and E. coli bacterial strains. | column: HD10 / HD50

[2] = system: E. coli 64771 (ESBL); experiment: microbe, parasite or virus in culture
Method in brief: (§1)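 Clinical and lab strains were tested by modified broth microdilution in Mueller Hinton medium at 2–7 x 10^5 CFU/mL.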

[3] = system: P. aeruginosa LES400 (MDR); experiment: microbe, parasite or virus in culture
Method in brief: as §1

[4] = system: S. aureus C623 (MRSA); experiment: microbe, parasite or virus in culture
Method in brief: as §1

[5] = system: E. coli 63103 (ESBL); experiment: microbe, parasite or virus in culture
Method in brief: as §1

[6] = system: S. aureus ATCC25923; experiment: microbe, parasite or virus in culture
Method in brief: as §1

[7] = system: P. aeruginosa H1030 (MDR); experiment: microbe, parasite or virus in culture; details: P. aeruginosa H1030 (MDR)
Method in brief: as §1

[8] = system: P. aeruginosa 9 (MDR); experiment: microbe, parasite or virus in culture
Method in brief: as §1

[9] = system: P. aeruginosa 198 (MDR); experiment: microbe, parasite or virus in culture
Method in brief: as §1

[10] = system: P. aeruginosa H103 (wild type); experiment: microbe, parasite or virus in culture
Method in brief: as §1

[11] = system: E. faecalis ATCC29212; experiment: microbe, parasite or virus in culture
Method in brief: as §1

[12] = system: K. pneumonia 61962 (ESBL); experiment: microbe, parasite or virus in culture
Method in brief: as §1

[13] = system: P. aeruginosa H1027 (MDR); experiment: microbe, parasite or virus in culture
Method in brief: as §1

[14] = system: P. aeruginosa 213 (MDR); experiment: microbe, parasite or virus in culture
Method in brief: as §1

[15] = system: E. cloacae 218R Class C β-lactamase; experiment: microbe, parasite or virus in culture
Method in brief: as §1

[16] = system: K. pneumonia 63575 (ESBL); experiment: microbe, parasite or virus in culture
Method in brief: as §1

[17] = system: E. faecalis F43559 (VRE); experiment: microbe, parasite or virus in culture
Method in brief: as §1

[18] = system: E. faecium mic80 (VRE); experiment: microbe, parasite or virus in culture
Method in brief: as §1

[19] = system: E. faecium T62764 (VRE); experiment: microbe, parasite or virus in culture
Method in brief: as §1

[20] = system: P. maltophilia ATCC13637; experiment: microbe, parasite or virus in culture
Method in brief: as §1

[21] = system: E. faecalis W61950 (VRE); experiment: microbe, parasite or virus in culture
Method in brief: as §1

[22] = system: B. subtilis ATCC 6633; type: cell-based
Method in brief: (§2)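 MICs determined by 2:1 serial broth microdilution in cation-adjusted Mueller-Hinton broth per CLSI M7-A6, using inoculum at 1 x 10^6 CFU/mL mixed 1:1 with peptoid solution. Three independent replicates, each with two parallel trials.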

[23] = system: E. coli ATCC 35218; type: cell-based
Method in brief: as §2

[24] = system: NIH 3T3 cells; experiment: Metabolic activity, MTS assay; type: cell-based, mouse
Method in brief: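 Mouse NIH 3T3 fibroblast monolayers, about 5000 cells per well, washed and exposed to serially diluted peptoids in Hank's balanced salt solution. Metabolic activity read by MTS; average of six replicate trials.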

[25] = system: 20 bacterial strains (13 Gram-negative, 7 Gram-positive); details: out of the 20 pathogens tested
Method: The MICs of test agents were measured using a modified broth micro-dilution method in Difco Mueller Hinton medium, on a panel of bacterial pathogens that were both susceptible and resistant to common antibiotics (S1 File). Briefly, serial dilutions were performed in 0.01% acetic acid containing 0.2% bovine serum albumin at 10-fold the desired final concentration. Ten μL of the 10-fold concentrated test reagents were added to each well of a 96-well polypropylene microtitre plate containing 90 μL of Mueller Hinton media per well. Bacteria were added to the plate from an overnight culture at a final concentration of 2–7 x 10^5 CFU/mL and incubated overnight at 37°C. The MIC is defined as the concentration at which no growth was observed.
Screening of peptoid antimicrobial activity against a panel of multidrug resistant superbugs was done according to the protocol described in the manuscript. The bacterial strains used in this panel included; P. aeruginosa PAO1 strain H103 [1], P. maltophilia ATCC#13637, S. aureus ATCC#25923 [1], E. faecalis ATCC#29212 [2], and E. cloacae 218R, constitutively expressing Class C chromosomal β-lactamase, were from the Hancock lab strains collection. An MRSA clinical isolate was kindly provided by Anthony Chow (Vancouver General Hospital, Vancouver, Canada). Two Klebsiella pneumoniae and two E. coli clinical isolates expressing extended spectrum β-lactamases (ESBL) were kindly provided by George Zhanel (Health Sciences Centre, Winnipeg, Canada). Vancomycin-resistant clinical isolates of Enterococcus faecalis and E. faecium were obtained from Ana M. Paccagnella (BC Centre for Disease Control, Vancouver, Canada). Three clinical isolates (#9, #198 and #213) of multi-drug resistant P. aeruginosa, were kindly provided by Carlos Kiffer (University of São Paulo, Brazil). […] Three P. aeruginosa clinical isolates of the Liverpool epidemic strain (LES) (H1027, H1030 and LES400) were all kindly provided by Craig Winstanley (University of Liverpool, UK). […] All tested bacterial strains were categorized as biohazard level 2 pathogens.

[26] = system: LPS (P. aeruginosa); experiment: Dansyl polymyxin B (DPX) displacement assay, LPS binding; details: DPX bound to P. aeruginosa LPS
Method: The Dansyl polymyxin B (DPX) displacement assay was carried out as described earlier. In brief, the fluorescence of DPX (Invitrogen) bound to LPS (P. aeruginosa) was measured by using a Luminescence spectrometer LS 50B (Perkin Elmer) with excitation and emission-wavelengths of 340 nm and 485 nm, respectively. A predetermined amount of DPX, resulting in 90% saturation of LPS, was added to 1 mL of 3 μg/mL of purified LPS. Small aliquots (5 μL of 1 μg/mL) of test compounds were added under constant stirring in the cuvette, and the displacement of DPX was measured for 30–60 seconds as a decrease in fluorescence. The process was repeated until maximum displacement was reached.
The ability of other cationic molecules to displace DPX molecules bound to LPS (monitored by reduction in fluorescence) assesses their relative ability to bind to LPS [33, 34]. While the highly cationic MSI-78 (+10 charge) displaced 100% of bound DPX (equivalent to that of polymyxin B), peptoid 1 and MX-226 displaced 71% and 73% of bound DPX, respectively. […] A second parameter characterizing the LPS/polycation interaction is the I50, which is defined as the concentration of a polycation that displaces 50% of LPS-bound DPX. The I50 is inversely related to the relative affinity of each molecule for binding sites on LPS.

Row | Molecule | HD10 (hemolytic activity) [1] | HD50 (hemolytic activity) [1] | MIC ([2]; 64771 (ESBL)) | MIC ([3]; LES400 (MDR)) | MIC ([4]; C623) | MIC ([5]; 63103 (ESBL)) | MIC ([6]; ATCC25923) | MIC [7] | MIC ([8]; 9 (MDR)) | MIC ([9]; 198 (MDR)) | MIC ([10]; H103 (wild type)) | MIC ([11]; ATCC29212) | MIC [12] | MIC ([13]; H1027 (MDR)) | MIC ([14]; 213 (MDR)) | MIC ([15]; 218R Class C β-lactamase) | MIC ([18]; mic80 (VRE)) | MIC ([20]; ATCC13637) | MIC B. subtilis [22] | MIC E. coli [23] | other results
1 | CC(C)[C@H](C)N(CC(N)=O)C(=O)CN(C(=O)CN(CCCCN)C(=O)CN(C(=O)CN(C(=O)CN(CCCCN)C(=O)CN(C(=O)CN(C(=O)CN(CCCCN)C(=O)CN(C(=O)CN(C(=O)CNCCCCN)[C@@H](C)C(C)C)[C@@H](C)C(C)C)[C@@H](C)C(C)C)[C@@H](C)C(C)C)[C@@H](C)C(C)C)[C@@H](C)C(C)C)[C@@H](C)C(C)C [Peptoid 1-Nsdpall, H-(NLys-Nsdp-Nsdp)4-NH2] | >200 / >200 | >200 / >200 | 16 µg/mL (≈ 10.3 µM) | 32 µg/mL (≈ 20.7 µM) | 8 µg/mL (≈ 5.17 µM) | 64 µg/mL (≈ 41.4 µM) | 16 µg/mL (≈ 10.3 µM) | 32 µg/mL (≈ 20.7 µM) | 256 µg/mL (≈ 165 µM) | 128 µg/mL (≈ 82.7 µM) | 32 µg/mL (≈ 20.7 µM) | 64 µg/mL (≈ 41.4 µM) | 128 µg/mL (≈ 82.7 µM) | 4 µg/mL (≈ 2.59 µM) | 64 µg/mL (≈ 41.4 µM) | 32 µg/mL (≈ 20.7 µM) | 16 µg/mL (≈ 10.3 µM) | 1 µg/mL (≈ 0.646 µM) | 0.78 µM (≈ 1.21 µg/mL) | 25 µM (≈ 38.7 µg/mL) | MIC [16]: 128 µg/mL (≈ 82.7 µM); MIC ([17]; F43559 (VRE)): 128 µg/mL (≈ 82.7 µM); MIC ([19]; T62764 (VRE)): 4 µg/mL (≈ 2.59 µM); MIC ([21]; W61950 (VRE)): 128 µg/mL (≈ 82.7 µM); ID50 (inhibitory dose, metabolic activity) [24]: 64 µM
2 | C[C@@H](c1ccccc1)N(CC(=O)N(CC(=O)N(CCCCN)CC(=O)N(CC(=O)N(CC(=O)N(CCCCN)CC(=O)N(CC(=O)N(CC(=O)N(CCCCN)CC(=O)N(CC(=O)N(CC(N)=O)Cc1ccccc1)Cc1ccccc1)Cc1ccccc1)Cc1ccccc1)Cc1ccccc1)Cc1ccccc1)Cc1ccccc1)C(=O)CNCCCCN [Peptoid 1ach-Nspe2, H-(NLys-Nspe-Npm)- (NLys-Npm-Npm)3-NH2] (H-[Nlys][Nspe][Nphe][Nlys][Nphe][Nphe][Nlys][Nphe][Nphe][Nlys][Nphe][Nphe]-NH2) | 160 | > 200 | 8 µg/mL (≈ 4.65 µM) | 4 µg/mL (≈ 2.32 µM) | 4 µg/mL (≈ 2.32 µM) | 16 µg/mL (≈ 9.3 µM) | 4 µg/mL (≈ 2.32 µM) | 32 µg/mL (≈ 18.6 µM) | 64 µg/mL (≈ 37.2 µM) | 8 µg/mL (≈ 4.65 µM) | 4 µg/mL (≈ 2.32 µM) | 16 µg/mL (≈ 9.3 µM) | 64 µg/mL (≈ 37.2 µM) | 2 µg/mL (≈ 1.16 µM) | 8 µg/mL (≈ 4.65 µM) | 16 µg/mL (≈ 9.3 µM) | 4 µg/mL (≈ 2.32 µM) | 2 µg/mL (≈ 1.16 µM) | 0.78 µM (≈ 1.34 µg/mL) | 6.3 µM (≈ 10.8 µg/mL) | MIC [16]: 32 µg/mL (≈ 18.6 µM); MIC ([17]; F43559 (VRE)): 16 µg/mL (≈ 9.3 µM); MIC ([19]; T62764 (VRE)): 2 µg/mL (≈ 1.16 µM); MIC ([21]; W61950 (VRE)): 32 µg/mL (≈ 18.6 µM); ID50 (inhibitory dose, metabolic activity) [24]: 11 µM
3 | H-(NLys-Npm-Npm)4-NH2 [Peptoid 1ach] | 183 | > 200 | – | – | – | – | – | 64 µg/mL | – | – | – | – | – | – | – | – | – | – | 1.6 µM | 12.5 µM | MIC ([2]; E. coli 64771 (ESBL)): 8 µg/mL; MIC ([3]; P. aeruginosa LES400 (MDR)): 4 µg/mL; MIC ([4]; S. aureus C623 (MRSA)): 4 µg/mL; MIC ([5]; E. coli 63103 (ESBL)): 16 µg/mL; MIC ([6]; S. aureus ATCC25923): 4 µg/mL; MIC ([8]; P. aeruginosa 9 (MDR)): 64 µg/mL; MIC ([9]; P. aeruginosa 198 (MDR)): 8 µg/mL; MIC ([10]; P. aeruginosa H103 (wild type)): 4 µg/mL; MIC ([11]; E. faecalis ATCC29212): 8 µg/mL; MIC ([12]; K. pneumonia 61962 (ESBL)): 128 µg/mL; MIC ([13]; P. aeruginosa H1027 (MDR)): 2 µg/mL; MIC ([14]; P. aeruginosa 213 (MDR)): 8 µg/mL; MIC ([15]; E. cloacae 218R Class C β-lactamase): 16 µg/mL; MIC ([16]; K. pneumonia 63575 (ESBL)): 64 µg/mL; MIC ([17]; E. faecalis F43559 (VRE)): 32 µg/mL; MIC ([18]; E. faecium mic80 (VRE)): 4 µg/mL; MIC ([19]; E. faecium T62764 (VRE)): 2 µg/mL; MIC ([20]; P. maltophilia ATCC13637): 4 µg/mL; MIC ([21]; E. faecalis W61950 (VRE)): 32 µg/mL; ID50 (inhibitory dose, metabolic activity) ([24]; NIH 3T3 cells, MTS assay, 3 hours): 16 µM
4 | ILRWPWWPWRRK-NH2 (C-terminus assumed) [MX-226, Omiganan, reference compound] | – | – | 64 µg/mL | – | 32 µg/mL | 64 µg/mL | 16 µg/mL | – | – | – | 32 µg/mL | – | – | 64 µg/mL | 64 µg/mL | 16 µg/mL | 64 µg/mL | 32 µg/mL | – | – | number of pathogens with MIC ≤ 8 μg/mL [25]: none; bound DPX displaced (maximum displacement) [26]: 73%; IC50 ([26]; read-out: I50 (concentration that displaces 50% of LPS-bound DPX)): 5 µM
